The assay deals with human iPSC and ESC lines. Briefly: Definitive endoderm generation from human iPSC/ESC (FOXA2/SOX17 co-staining). The format is cell-based. The conditions noted are these: screen of multiple PI3K inhibitors (LY-294002, ZSTK474, Wortmannin, PI828, NVP-BKM120, PIK-75). Here is the method:
The endoderm is one of the three primary germ cell layers in the embryo. It forms the embryonic gut which in turn gives rise to the epithelia of the lungs and digestive organs. Therefore, the first essential step for directing human iPSC towards a lung lineage is to generate endoderm cells, preferably with high efficiency. […] For example, the current published protocol (Mou et al., 2012; RPMI+2% B27+100 ng/ml TGF-beta agonist Activin A+5 uM LY-294002 PI3K Inhibitor) is effective in several human iPSC and ESC lines with definitive endoderm efficiency higher than 90%. In some “difficult” or “resistant” cell lines, this same protocol generates definitive endoderm that varies between low efficiency (<30%) to medium efficiency (40-70%). […] Therefore, this protocol is much more cost-effective than prior protocols. […]
This protocol permits a remarkable 90% or greater, including 91%, 92%, 93%, 94%, 95%, 96%, 97%, and even as high as 98% or more, of human iPSC/ESC cells to be converted into definitive endoderm cell as determined by nuclear staining for the transcription factors Foxa2 and Sox17. […] Furthermore, this protocol can be universally applied to multiple cell lines including several “difficult” cell lines that were determined to have low efficiency of definitive endoderm generation. […]

With `FC(F)c1nc2ccccc2n1-c1nc(N2CCOCC2)nc(N2CCOCC2)n1` [ZSTK474], the “potency for definitive endoderm generation” value is listed as “most potent”.
